According to patent US12466784B2, “Analogs of pterostilbene amino acid bearing carbonates for treating a non-alcoholic fatty liver disease and nonalcoholic steatohepatitis” (APICAL MOLECULAR BIOTECH CO., LTD., priority 2020, dated 2025):
Several values for one entry are separate records, joined by “and”; a condition that tells them apart may be missing. Equal values may be shown once.

What was measured:
[1] = system: hepatic steatosis induced by MCD diet; experiment: Histological examination (H&E stain) of liver of MCD diet mice; assay type: in vivo, Male C57BL/6 mice; conditions: for Avg: average of Scores of the group; for Steatosis / Ballooning / Fibrosis / Inflammation / Steastosis: score per animal; for Steatosis: in PG/TPSG (1:1); for Scores: total score per animal
Experimental: (§1) Animals and experimental protocol: Male C57BL/6 mice, 4 weeks of age, were purchased from Laboratory Animal Center (Taiwan, China) were maintained under the procedures and guidelines provided by the Institutional Animal Care and Use Committee of the Health Research Institutes (Taiwan, China). They were maintained with free access to pellet food and water in stainless-steel cages at a temperature of 21±2° C. with a 12 h light/dark cycle.
(§2) Mice were randomly divided into five groups and treated as follows: (1) MCD diet+PG/TPSG (2) MCD diet+100 mg/kg all compounds. After 28 days, animals were sacrificed for the collection of blood for determination of plasma ALT and AST concentrations, and liver samples for H&E stain.
(§3) After 28 days, animals were sacrificed for the collection of blood for determination of plasma ALT and AST concentrations, and liver samples for H&E stain.

[2] = system: MCD diet NASH mice; experiment: Serum AST and ALT of compounds treated-NASH mice (MCD diet); assay type: in vivo, Male C57BL/6 mice
Experimental: as §1, §2, §3

[3] = In vitro stability in pH 1.2 solution (USP Gastric fluid without enzymes); conditions: 37° C.
Experimental: Sample collection: At 0, 0.17, 0.5, 1, 2, 4 and 6 h, 100 mL of aliquots were taken from the incubation mixture and placed into centrifuge tubes containing 100 μL of ice-cold acetonitrile and 1 μm internal standard where the reaction was terminated.

[4] = MCD diet mice, 100 mg/kg oral, PG/TPSG (1:1)
[5] = MCD diet mice, 100 mg/kg oral, PG/TPSG (1:1), hydrochloride, 100 mg/kg
[6] = sum of Scores of the 4 animals of the group, 100 mg/kg oral, PG/TPSG (1:1)
[7] = MCD diet mice, 100 mg/kg oral (Table 2)
[8] = MCD diet mice, 100 mg/kg oral, PG/TPSG (1:1), 100 mg/kg
[9] = MCD diet mice, 75 mg/kg oral, hydrochloride, 75 mg/kg
[10] = MCD diet mice, 100 mg/kg oral (Table 3 study)
[11] = MCD diet mice, 100 mg/kg oral (Table 3 study), hydrochloride, 100 mg/kg
[12] = MCD diet mice, 150 mg/kg oral, hydrochloride, 150 mg/kg
[13] = MCD diet mice, 100 mg/kg oral (Table 4 study)
[14] = MCD diet mice, 100 mg/kg oral once daily, 5 times a week, hydrochloride, 100 mg/kg

COc1cc(/C=C/c2ccc(OC(=O)OCCNC(=O)CN)cc2)cc(OC)c1.Cl [Compound 5a, (E)-2-(2-aminoacetamido)ethyl (4-(3,5-dimethoxystyryl)phenyl) carbonate hydrochloride]
effect on MCD diet-induced steatohepatitis (H&E staining), in words ([1]; MCD diet mice, 100 mg/kg oral): prevented MCD diet-induced steatohepatitis
Avg ([1]; 100 mg/kg oral, PG/TPSG (1:1)): 7.75
Steatosis ([1]; MCD diet mice, 100 mg/kg oral once daily, 5 times a week): 3
Ballooning [1, 4]: 2
Fibrosis [1, 4]: 0
Inflammation [1, 5]: 3 (3×) and 2
Sum [1, 6]: 31
Scores [1, 5]: 8 (3×) and 7
effect on serum concentrations of AST and ALT, in words [2, 7]: significantly inhibited the serum concentrations of AST and ALT
Serum ALT (U/L) [2, 4]: 251.75 U/L
Serum AST (U/L) [2, 4]: 283.00 U/L
compound remaining in pH = 1.2 solution (%) ([3]; Time 0 h): 100.0%
compound remaining in pH = 1.2 solution (%) ([3]; Time 0.167 h): 104.6%
compound remaining in pH = 1.2 solution (%) ([3]; Time 0.5 h): 104.0%
compound remaining in pH = 1.2 solution (%) ([3]; Time 1 h): 110.2%
compound remaining in pH = 1.2 solution (%) ([3]; Time 2 h): 101.7%
compound remaining in pH = 1.2 solution (%) ([3]; Time 4 h): 103.5%

COc1cc(/C=C/c2ccc(OC(=O)OCCNC(=O)C(N)C(C)C)cc2)cc(OC)c1.O=C(O)c1cccnc1 (stereo not drawn) [Compound 5w, (E)-2-(2-amino-3-methylbutanamido)ethyl (4-(3,5-dimethoxystyryl)phenyl) carbonate nicotinate]
effect on MCD diet-induced steatohepatitis (H&E staining), in words ([1]; MCD diet mice, 100 mg/kg oral): prevented MCD diet-induced steatohepatitis
Avg ([1]; 100 mg/kg oral, PG/TPSG (1:1)): 7.50
Steatosis ([1]; MCD diet mice, 100 mg/kg oral once daily, 5 times a week, 100 mg/kg): 3 (3×) and 2
Ballooning [1, 4]: 2
Fibrosis [1, 4]: 0
Inflammation [1, 8]: 2 and 3 (3×)
Sum [1, 6]: 30
Scores [1, 8]: 7 (2×) and 8 (2×)
Serum ALT (U/L) [2, 4]: 214.50 U/L
Serum AST (U/L) [2, 4]: 236.75 U/L
compound remaining in pH = 1.2 solution (%) ([3]; Time 0 h): 100.0%
compound remaining in pH = 1.2 solution (%) ([3]; Time 0.167 h): 128.3%
compound remaining in pH = 1.2 solution (%) ([3]; Time 0.5 h): 113.4%
compound remaining in pH = 1.2 solution (%) ([3]; Time 1 h): 123.9%
compound remaining in pH = 1.2 solution (%) ([3]; Time 2 h): 128.5%
compound remaining in pH = 1.2 solution (%) ([3]; Time 4 h): 122.4%

(E)-2-(2-amino-3-methylbutanamido)ethyl (4-(3,5-dimethoxystyryl)phenyl) carbonate hydrochloride [Compound 5c]
anti-NASH/NAFLD activities, in words ([1]; MCD diet mice): significant anti-NASH/NAFLD activities
effect on MCD diet-induced steatohepatitis (H&E staining), in words ([1]; MCD diet mice, 100 mg/kg oral): prevented MCD diet-induced steatohepatitis
effect on MCD diet-induced steatohepatitis (H-E staining), in words ([1]; MCD diet mice, 75, 100 and 150 mg/kg oral (FIG. 1, Table 3)): prevented MCD diet-induced steatohepatitis
Avg ([1]; 75 mg/kg oral): 6.2
Avg ([1]; 100 mg/kg oral (Table 3 study)): 4.2
Avg ([1]; 150 mg/kg oral): 3.2
Ballooning ([1]; MCD diet mice, 75 mg/kg oral): 2
Inflammation ([1]; MCD diet mice, 75 mg/kg oral): 1
Steastosis ([1]; MCD diet mice, 75 mg/kg oral once daily, 5 times a week): 3
Fibrosis [1, 9]: 1 and 0 (4×)
Fibrosis [1, 10]: 0
Inflammation [1, 10]: 0
Ballooning [1, 11]: 2 (3×) and 1 (2×)
Steastosis ([1]; MCD diet mice, 100 mg/kg oral once daily, 5 times a week (Table 3 study), hydrochloride, 100 mg/kg): 3 (3×) and 2 (2×)
Fibrosis ([1]; MCD diet mice, 150 mg/kg oral): 0
Inflammation ([1]; MCD diet mice, 150 mg/kg oral): 0
Steastosis ([1]; MCD diet mice, 150 mg/kg oral once daily, 5 times a week, hydrochloride, 150 mg/kg): 2 (3×) and 1 and 3
Ballooning [1, 12]: 1 (4×) and 2
Sum ([1]; sum of Scores of the 5 animals, 75 mg/kg oral): 31
Sum ([1]; sum of Scores of the 5 animals, 100 mg/kg oral (Table 3 study)): 21
Sum ([1]; sum of Scores of the 5 animals, 150 mg/kg oral): 16
Scores [1, 9]: 7 and 6 (4×)
Scores [1, 11]: 5 (3×) and 3 (2×)
Scores [1, 12]: 3 (3×) and 2 and 5
Serum ALT (U/L) ([2]; MCD diet mice, 75 mg/kg oral): 164.40 U/L
Serum AST (U/L) ([2]; MCD diet mice, 75 mg/kg oral): 275.00 U/L
effect on serum concentrations of AST and ALT, in words [2, 7]: significantly inhibited the serum concentrations of AST and ALT
Serum ALT (U/L) [2, 13]: 92.60 U/L
Serum AST (U/L) [2, 13]: 245.80 U/L
Serum ALT (U/L) [2, 4]: 205.13 U/L
Serum AST (U/L) [2, 4]: 274.00 U/L
Serum ALT (U/L) ([2]; MCD diet mice, 150 mg/kg oral): 82.80 U/L
Serum AST (U/L) ([2]; MCD diet mice, 150 mg/kg oral): 192.00 U/L
effect on serum concentrations of AST and ALT, in words ([2]; MCD diet mice, 75, 100 and 150 mg/kg oral (Table 4)): significantly inhibited the serum concentrations of AST and ALT with dose-dependent manners
compound remaining in pH = 1.2 solution (%) ([3]; Time 0 h): 100.0%
compound remaining in pH = 1.2 solution (%) ([3]; Time 0.167 h): 88.5%
compound remaining in pH = 1.2 solution (%) ([3]; Time 0.5 h): 93.2%
compound remaining in pH = 1.2 solution (%) ([3]; Time 1 h): 96.0%
compound remaining in pH = 1.2 solution (%) ([3]; Time 2 h): 91.7%
compound remaining in pH = 1.2 solution (%) ([3]; Time 4 h): 97.4%

Cl.[2H]C([2H])([2H])Oc1cc(/C=C/c2ccc(OC(=O)OCCNC(=O)CN)cc2)cc(OC([2H])([2H])[2H])c1 [Compound 6a, (E)-2-(2-aminoacetamido)ethyl (4-(3,5-bis(methoxy-d3)styryl-d6)phenyl) carbonate hydrochloride]
effect on MCD diet-induced steatohepatitis (H&E staining), in words ([1]; MCD diet mice, 100 mg/kg oral): prevented MCD diet-induced steatohepatitis
Avg ([1]; 100 mg/kg oral, PG/TPSG (1:1)): 7.00
Steatosis [1, 14]: 3 (2×) and 2 (2×)
Ballooning [1, 4]: 2
Fibrosis [1, 4]: 0
Inflammation [1, 5]: 3 (2×) and 2 (2×)
Sum [1, 6]: 28
Scores [1, 5]: 8 and 7 (2×) and 6
Serum ALT (U/L) [2, 4]: 402.63 U/L
Serum AST (U/L) [2, 4]: 555.25 U/L
compound remaining in pH = 1.2 solution (%) ([3]; Time 0 h): 100.0%
compound remaining in pH = 1.2 solution (%) ([3]; Time 0.167 h): 106.4%
compound remaining in pH = 1.2 solution (%) ([3]; Time 0.5 h): 101.2%
compound remaining in pH = 1.2 solution (%) ([3]; Time 1 h): 119.4%
compound remaining in pH = 1.2 solution (%) ([3]; Time 2 h): 101.5%
compound remaining in pH = 1.2 solution (%) ([3]; Time 4 h): 104.6%

COc1cc(/C=C/c2ccc(OC(=O)OCCNC(=O)C(N)CO)cc2)cc(OC)c1.Cl (stereo not drawn) [Compound 5g, (E)-2-(2-amino-3-hydroxypropanamido)ethyl (4-(3,5-dimethoxystyryl)phenyl) carbonate hydrochloride]
effect on MCD diet-induced steatohepatitis (H&E staining), in words ([1]; MCD diet mice, 100 mg/kg oral): prevented MCD diet-induced steatohepatitis
Avg ([1]; 100 mg/kg oral, PG/TPSG (1:1)): 6.5
Steatosis [1, 14]: 3 (2×) and 2 (2×)
Fibrosis [1, 4]: 0
Ballooning [1, 5]: 2 (2×) and 1 (2×)
Inflammation [1, 5]: 3 (2×) and 2 (2×)
Sum [1, 6]: 26
Scores [1, 5]: 8 (2×) and 5 (2×)
Serum ALT (U/L) [2, 4]: 222.13 U/L
Serum AST (U/L) [2, 4]: 444.25 U/L
